# Reference: US20110028686A1, “Protein binding miniature proteins” (Yale University, priority 2000, published 2011)
# Where “and” joins values, the source holds several entries; their conditions need not be identical. Equal entries are not always repeated. Where two headings read alike, the source gives them in different places. Ends that are not written are not given here. * marks the point of attachment. X1 = C[C@]12O[C@H](C[C@]1(O)C(=O)NCCCCCCCCNC(=O)C*)n1c3ccccc3c3c4c(c5c6ccccc6n2c5c31)CNC4=O; Fluorescein(5-NHCOCH2) = O=C(C*)Nc1ccc2c(c1)C(=O)OC21c2ccc(O)cc2Oc2cc(O)ccc21
# Key:
# CBP KIX Y658F = biological target: T1, CBP KIX Y658F (Mus musculus, UniProt P45481, Y658F); experiment: Equilibrium fluorescence polarization, CBP KIX variant Y658F; format: binding; conditions: 25° C.
# T1 construct: made in house; host or cells: E. coli BL21(DE3) pArg
# Calmodulin = biological target: T2, Calmodulin (Homo sapiens, UniProt P0DP23); experiment: Fluorescence polarization specificity, calmodulin; format: binding; conditions: calmodulin as target protein; read-out: Kd CalM
# T2 construct: purchased Sigma
# Description: (§1) Given the myriad protein surfaces present in the cell, the utility of molecules that recognize protein surfaces will depend on their ability to interact selectively with the desired protein.
# CBP KIX K662A = biological target: T3, CBP KIX K662A (Mus musculus, UniProt P45481, K662A); experiment: Equilibrium fluorescence polarization, CBP KIX variant K662A; format: binding; conditions: 25° C.
# T3 construct: made in house; host or cells: E. coli BL21(DE3) pArg
# CBP KIX Q661A = biological target: T4, CBP KIX Q661A (Mus musculus, UniProt P45481, Q661A); experiment: Equilibrium fluorescence polarization, CBP KIX variant Q661A; format: binding; conditions: 25° C.
# T4 construct: made in house; host or cells: E. coli BL21(DE3) pArg
# CBP KIX L603A = biological target: T5, CBP KIX L603A (Mus musculus, UniProt P45481, L603A); experiment: Equilibrium fluorescence polarization, CBP KIX variant L603A; format: binding; conditions: 25° C.
# T5 construct: made in house; host or cells: E. coli BL21(DE3) pArg
# CBP KIX Y650A = biological target: T6, CBP KIX Y650A (Mus musculus, UniProt P45481, Y650A); experiment: Equilibrium fluorescence polarization, CBP KIX variant Y650A; format: binding; conditions: 25° C.
# T6 construct: made in house; host or cells: E. coli BL21(DE3) pArg
# CBP KIX LL652-3AA = biological target: T7, CBP KIX LL652-3AA (Mus musculus, UniProt P45481, L652A/L653A); experiment: Equilibrium fluorescence polarization, CBP KIX variant LL652-3AA; format: binding; conditions: 25° C.
# T7 construct: made in house; host or cells: E. coli BL21(DE3) pArg
# CBP KIX I657A = biological target: T8, CBP KIX I657A (Mus musculus, UniProt P45481, I657A); experiment: Equilibrium fluorescence polarization, CBP KIX variant I657A; format: binding; conditions: 25° C.
# T8 construct: made in house; host or cells: E. coli BL21(DE3) pArg
# CBP KIX K606A = biological target: T9, CBP KIX K606A (Mus musculus, UniProt P45481, K606A); experiment: Equilibrium fluorescence polarization, CBP KIX variant K606A; format: binding; conditions: 25° C.
# T9 construct: made in house; host or cells: E. coli BL21(DE3) pArg
# CBP KIX Y658A = biological target: T10, CBP KIX Y658A (Mus musculus, UniProt P45481, Y658A); experiment: Equilibrium fluorescence polarization, CBP KIX variant Y658A; format: binding; conditions: 25° C.
# T10 construct: made in house; host or cells: E. coli BL21(DE3) pArg
# Carbonic anhydrase II = biological target: T11, Carbonic anhydrase II (Homo sapiens, UniProt P00918); experiment: Fluorescence polarization specificity, carbonic anhydrase II; format: binding; conditions: carbonic anhydrase II as target protein; read-out: Kd CA
# T11 construct: purchased Sigma
# Description: as §1
# CBP KIX wild type = biological target: T12, CBP KIX wild type (Mus musculus, UniProt P45481); experiment: Equilibrium fluorescence polarization, wild type CBP KIX; format: binding; conditions: 25° C.
# T12 construct: made in house; host or cells: E. coli BL21(DE3) pArg
# CBP KIX I660A = biological target: T13, CBP KIX I660A (Mus musculus, UniProt P45481, I660A); experiment: Equilibrium fluorescence polarization, CBP KIX variant I660A; format: binding; conditions: 25° C.
# T13 construct: made in house; host or cells: E. coli BL21(DE3) pArg
# [1] = biological target: T14, HisKIX (His-tagged CBP KIX domain) (Mus musculus, UniProt P45481); experiment: Equilibrium fluorescence polarization, HisKIX binding; conditions: 25° C.
# T14 construct: The CBP KIX-coding region (residues 586 to 672) of pGEX-KT KIX 10-672; made in house; host or cells: E. coli BL21(DE3) pArg
# CBP KIX E655A = biological target: T15, CBP KIX E655A (Mus musculus, UniProt P45481, E655A); experiment: Equilibrium fluorescence polarization, CBP KIX variant E655A; format: binding; conditions: 25° C.
# T15 construct: made in house; host or cells: E. coli BL21(DE3) pArg
# catalytic subunit of PKA = catalytic subunit of PKA (Homo sapiens, UniProt P17612); experiment: Fluorescence polarization, affinity for PKA catalytic subunit; format: binding
# [2] = biological target: protein kinase Cα (PKC-α) (Homo sapiens, UniProt P17252); experiment: Phosphotransferase assay, PKC-α; format: biochemical; conditions: 1-K252a up to 100 nM; 1 up to 5 μM
# [3] = system: cGMP-dependent protein kinase (PKG); experiment: Phosphotransferase assay, PKG; format: biochemical
# Akt kinase (PKB) = Akt kinase (PKB) (Homo sapiens, UniProt P31749); experiment: Phosphotransferase assay, PKB; format: biochemical; conditions: 1-K252a up to 100 nM; 1 up to 5 μM
# [4] = system: Ca++/calmodulin kinase II (CamKII); experiment: Phosphotransferase assay, CamKII; format: biochemical; conditions: 1-K252a up to 100 nM; 1 up to 5 μM
# PKA = PKA (Homo sapiens, UniProt P17612); experiment: PKA phosphotransferase assay, streptavidin-matrix capture of [32P]-phosphorylated substrates; format: biochemical
# T14 sequence (P45481 586-672): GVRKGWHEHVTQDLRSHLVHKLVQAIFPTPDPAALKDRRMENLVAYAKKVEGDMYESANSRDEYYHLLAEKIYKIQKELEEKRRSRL
# Akt kinase (PKB), sequence (P31749 whole entry, species assumed): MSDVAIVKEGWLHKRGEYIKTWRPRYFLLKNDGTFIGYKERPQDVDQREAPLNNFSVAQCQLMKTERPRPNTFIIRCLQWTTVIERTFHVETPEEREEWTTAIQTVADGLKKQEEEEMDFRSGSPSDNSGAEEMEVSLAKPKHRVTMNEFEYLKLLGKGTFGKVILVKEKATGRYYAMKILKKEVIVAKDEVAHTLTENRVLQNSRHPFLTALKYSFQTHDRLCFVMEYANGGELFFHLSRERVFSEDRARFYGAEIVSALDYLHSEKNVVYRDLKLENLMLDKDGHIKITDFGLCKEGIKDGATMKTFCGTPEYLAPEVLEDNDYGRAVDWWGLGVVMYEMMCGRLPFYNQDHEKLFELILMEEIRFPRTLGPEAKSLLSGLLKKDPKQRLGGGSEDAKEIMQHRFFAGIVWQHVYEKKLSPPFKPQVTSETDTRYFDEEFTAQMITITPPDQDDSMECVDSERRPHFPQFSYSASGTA
# T10 sequence (P45481 586-665 Y658A limits assumed): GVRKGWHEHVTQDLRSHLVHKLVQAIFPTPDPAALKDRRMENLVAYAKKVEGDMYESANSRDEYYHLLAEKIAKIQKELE
# T3 sequence (P45481 586-665 K662A limits assumed): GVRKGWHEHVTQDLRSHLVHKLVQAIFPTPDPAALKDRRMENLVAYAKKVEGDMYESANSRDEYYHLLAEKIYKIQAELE
# T12 sequence (P45481 586-665 limits assumed): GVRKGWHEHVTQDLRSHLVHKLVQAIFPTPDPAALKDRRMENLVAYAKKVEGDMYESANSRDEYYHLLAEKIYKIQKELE
# T1 sequence (P45481 586-665 Y658F limits assumed): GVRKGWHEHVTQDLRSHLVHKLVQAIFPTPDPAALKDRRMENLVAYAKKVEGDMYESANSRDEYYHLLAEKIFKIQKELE
# T8 sequence (P45481 586-665 I657A limits assumed): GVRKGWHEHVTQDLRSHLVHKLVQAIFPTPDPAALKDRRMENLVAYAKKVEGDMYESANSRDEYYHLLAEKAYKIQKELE
# T7 sequence (P45481 586-665 L652A/L653A): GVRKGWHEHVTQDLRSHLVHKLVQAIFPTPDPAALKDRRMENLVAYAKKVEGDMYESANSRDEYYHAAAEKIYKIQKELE
# T15 sequence (P45481 586-665 E655A limits assumed): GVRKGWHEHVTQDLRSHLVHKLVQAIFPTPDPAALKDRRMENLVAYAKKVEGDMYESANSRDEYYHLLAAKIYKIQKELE
# T5 sequence (P45481 586-665 L603A limits assumed): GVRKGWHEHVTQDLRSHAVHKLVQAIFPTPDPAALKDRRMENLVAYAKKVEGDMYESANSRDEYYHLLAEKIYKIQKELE
# T13 sequence (P45481 586-665 I660A limits assumed): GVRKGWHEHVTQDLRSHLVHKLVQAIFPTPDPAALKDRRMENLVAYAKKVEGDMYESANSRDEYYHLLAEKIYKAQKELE
# T9 sequence (P45481 586-665 K606A limits assumed): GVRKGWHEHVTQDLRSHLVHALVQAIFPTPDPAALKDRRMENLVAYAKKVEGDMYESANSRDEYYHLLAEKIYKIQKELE
# T6 sequence (P45481 586-665 Y650A limits assumed): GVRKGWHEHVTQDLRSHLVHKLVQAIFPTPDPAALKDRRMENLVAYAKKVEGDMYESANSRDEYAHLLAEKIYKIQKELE
# T4 sequence (P45481 586-665 Q661A limits assumed): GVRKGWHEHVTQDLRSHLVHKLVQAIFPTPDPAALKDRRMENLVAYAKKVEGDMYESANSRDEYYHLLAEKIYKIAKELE
compound,measurement,setting,value
CC[C@H](C)[C@H](NC(=O)[C@H](Cc1ccc(O)cc1)NC(=O)[C@H](Cc1ccccc1)NC(=O)[C@H](Cc1ccccc1)NC(=O)[C@H](COP(=O)(O)O)NC(=O)[C@H](CC(C)C)NC(=O)[C@H](CCCNC(=N)N)NC(=O)[C@H](CCCNC(=N)N)NC(=O)[C@@H](NC(=O)[C@@H]1CCCN1C(=O)[C@H](C)NC(=O)[C@H](CC(=O)O)NC(=O)[C@H](CC(=O)O)NC(=O)CNC(=O)[C@@H]1CCCN1C(=O)[C@H](Cc1ccc(O)cc1)NC(=O)[C@@H](NC(=O)[C@@H]1CCCN1C(=O)[C@H](CCC(N)=O)NC(=O)[C@H](CO)NC(=O)[C@@H]1CCCN1C(=O)CN)[C@@H](C)O)C(C)C)C(=O)N[C@@H](CC(C)C)C(=O)N[C@@H](CC(C)C)C(=O)N[C@@H](CC(=O)O)C(=O)N[C@@H](CC(C)C)C(=O)N[C@@H](Cc1ccc(O)cc1)C(=O)N[C@@H](CC(C)C)C(=O)N[C@@H](CC(=O)O)C(=O)N[C@@H](C)C(=O)N1CCC[C@H]1C(=O)NCC(=O)N[C@H](C(=O)N[C@@H](CSCC(=O)Nc1ccc2c(c1)C(=O)OC21c2ccc(O)cc2Oc2cc(O)ccc21)C(N)=O)C(C)C [PPKID4],Kd,CBP KIX Y658F,4.1 ± 0.2 µM
same,Kd,Calmodulin,51 µM and 52 µM
same,Kd,CBP KIX K662A,3.9 ± 0.3 µM
same,Kd,CBP KIX Q661A,1.1 ± 0.1 µM
same,Kd,CBP KIX L603A,3.4 ± 0.5 µM
same,Kd,CBP KIX Y650A,3 ± 0.3 µM
same,Kd,CBP KIX LL652-3AA,2.9 ± 0.2 µM
same,Kd,CBP KIX I657A,2.7 ± 0.1 µM
same,Kd,CBP KIX K606A,3.1 ± 0.2 µM
same,Kd,CBP KIX Y658A,4.1 µM and 3.9 µM
same,Kd,Carbonic anhydrase II,106 ± 12 µM
same,Kd,CBP KIX wild type,0.61 ± 0.04 µM
same,Kd,CBP KIX I660A,1.1 ± 0.1 µM
same,Kd,"[1]; fluorescein-labeled phosphopeptide, read-out: Kd HisKIX, phosphorylated peptide (P)",0.515 ± 0.044 µM
same,Kd,"[1]; fluorescein-labeled unphosphorylated peptide, read-out: Kd HisKIX, unphosphorylated peptide (U)",12.1 ± 2.4 µM
same,Kd,CBP KIX E655A,0.54 ± 0.05 µM
GPSQPTYPGDDAPVEDLIRFYNDLTYYLFVVSGRTGRRNAIHDC(Fluorescein(5-NHCOCH2))-NH2 (C-terminus assumed) [1^Flu],fold lower stability of PKA complex than PKA·PKI5-24^Flu,catalytic subunit of PKA; 100 μM ATP,3 fold
same,Kd,catalytic subunit of PKA; absence of ATP,0.23 ± 0.034 µM
same,Kd,catalytic subunit of PKA; presence of 100 μM ATP,0.099 ± 0.039 µM
GPSQPTYPGDDAPVEDLIRFYNDLTYYLFVVSGRTGRRNAIHDC-NH2 (C-terminus assumed) [compound 1],inhibition of PKC-α phosphotransferase activity,[2],inhibiting no other kinase tested
same,inhibition of PKG phosphotransferase activity,[3]; 1 up to 5 μM,inhibiting no other kinase tested
same,inhibition of PKB phosphotransferase activity,Akt kinase (PKB),inhibiting no other kinase tested
same,inhibition of CamKII phosphotransferase activity,[4],inhibiting no other kinase tested
GPSQPTYPGDDAPVEDLIRFYNDLTYYLFVVSGRTGRRNC(X1)IHD-NH2 (C-terminus assumed) [1-K252a],inhibition of PKC-α phosphotransferase activity,[2],inhibiting no other kinase tested
same,IC50,[3],0.679 ± 0.202 µM
same,inhibition of PKB phosphotransferase activity,Akt kinase (PKB),inhibiting no other kinase tested
same,fold more potent than 1 alone (PKA),PKA,30 fold
same,inhibition of CamKII phosphotransferase activity,[4],inhibiting no other kinase tested
